{"source": "patent US9764029B2", "about": "“Tumor proliferation inhibitor containing ultrasound-sensitive substance and method for inhibiting tumor proliferation by using tumor proliferation inhibitor and low-intensity pulsed ultrasound waves” (Fukuoka University, priority 2010, dated 2017)", "key": {"[1]": {"test_system": "human gastric cancer cell line MKN-74", "assay": "Inhibitory effect on cancer at a specific site (subcutaneous tumor) of mice with MKN-74 tumor (Example 2)", "assay_type": "in vivo", "conditions": "DEG 5 μM in combination with Szd 16 μL in 200 μL PBS, intratumoral; ultrasound 1 W/cm^2, 1 MHz, 50% duty cycle, 10 minutes, three times on alternate days", "procedure": "Mice were inoculated subcutaneously with ca. 5×10^6 cells of human gastric cancer cell line MKN-74 and a PBS suspension (200 μL) composed of the ultrasound-sensitive substance (DEG; 5 μM) and the acoustic cavitation phenomenon-enhancing substance (Szd; 16 μL) was administered intratumorally, followed by irradiating the mice with ultrasound waves of 1 W/cm^2 and 1 MHZ under a condition of 50% duty cycle for 10 minutes using Sonitron 100. The ultrasound waves were irradiated three times on alternate days. The results of the cancer sizes are shown by arrow mark (↑) in FIG. 4."}, "[2]": {"test_system": "human gastric cancer cell line MKN-74", "assay": "Ultrasonic treatment of SCID mice carrying subcutaneous MKN-74 cancer (Example 1)", "assay_type": "in vivo", "conditions": "DEG 5 μM + SONAZOID 16 μL in 300 μL saline, intratumoral; single treatment with low-intensity pulsed ultrasound 2 W/cm^2, 1 MHz, 50% duty cycle, 10 minutes; three weeks after treatment", "procedure": "SCID mice as cancer-carrying animals were inoculated subcutaneously with human gastric cancer cell line MKN-74 which was in turn grown to a diameter of the cancer size of approximately 20 mm and then subjected to treatment by ultrasound waves. The ultrasonic treatment was carried out using the porphyrin derivative, [7,12-bis(1-(2-(2-hydroxyethoxy)ethoxy)ethyl)-3,8,13,17-tetramethylporphyrin-2,18-dipropionato]manganese (DEG), as the ultrasound-sensitive substance and an ultrasound contrast agent containing lipid stabilized perfluorobutane microbubbles in an aqueous solution (SONAZOID™) as the acoustic cavitation phenomenon-enhancing substance by irradiating the mice with low-intensity pulsed ultrasound waves of 2 W/cm^2 and 1 MHz under a condition of 50% duty cycle for 10 minutes. The ultrasonic treatment was performed by suspending 5 μM of the ultrasound sensitive substance and 16 μL of the acoustic cavitation phenomenon-enhancing substance in 300 μL of saline and irradiating the mice with the ultrasound waves immediately after intratumoral administration of the resulting suspension. The states of development of the cancer were observed immediately after ultrasonic treatment, one week and three weeks thereafter."}}}
{"substance": "7,12-bis(1-(2-(2-hydroxyethoxy)ethoxy)ethyl)-3,8,13,17-tetra-methylporphyrin-2,18-dipropionato]manganese [DEG]", "values": [{"measurement": "antitumor effect, one remaining case of three", "setting": "[1]", "result": "significant antitumor effect"}, {"measurement": "antitumor effect, two cases out of three", "setting": "[1]", "result": "remarkable effects"}, {"measurement": "state of development of the cancer (tumor size)", "setting": "[2]", "result": "dramatic regression of the cancer"}]}
